These results are taken from paper PMC10907753 (Communications Biology, 2024).

“And” between values parts separate entries of the source, which are not always exact repeats. Identical values can stand only once. Like-named read-outs stand apart in the source and are kept apart here.

For assay [1], the target named is T1, Xcc NAMPT (Xanthomonas campestris pv. campestris, UniProt A0A0H2X5R2). Nature of the assay: NAMPT enzyme activity, fluorometric NMN assay (kinetic constants). The format is biochemical. How it is done:
(§1) To ensure the reliability of the results, all assays were performed multiple times. NAMPT enzyme activity was assessed using a chemical approach that converted NMN into a fluorescent derivative, in accordance with established protocols[15],[30].
(§2) The enzymatic reactions were carried out for 15 min at 37 °C, and the quantification of NMN was achieved using the fluorescence method. Briefly, the sample containing NMN (25 μl) was mixed with 10 μl of 20% acetophenone (200 μl acetophenone dissolved in 800 μl DMSO) and 10 μl of 2 M KOH. The mixture was then incubated on ice for 10 minutes before adding 45 μl of 100% formic acid. The resulting mixture was incubated at 37 °C for 15 min. Samples (40 μl) were then transferred to a 384-well plate, and fluorescence intensity was measured using the Victor Nivo Multimode plate reader (Perkin Elmer), with excitation and emission wavelengths set at 355/40 and 435/20 nm, respectively.
Correspondingly, the additions of 20% acetophenone, 2 M KOH, and 100% formic acid were adjusted proportionally. The resulting final samples (120 μl) were transferred to 96-well plates, and the fluorescence values were measured following the same procedure as described earlier.
(§3) The kinetic data was analyzed using Graphpad Prism 8. To determine the hill coefficients, substrate-velocity curves were analyzed by nonlinear regression with an allosteric sigmoidal model using the equation v = Vmax S^h/(Km^h + S^h).

For assay [2], the target named is T1, Xcc NAMPT. Nature of the assay: Determination of IC50 value for FK866. The assay is classed as biochemical.
The target of assay [3] is T1, Xcc NAMPT. Nature of the assay: biochemical.
Assay [4] concerns Xcc ΔNamptΔNads (XC_0719 and XC_1067 double deletion mutant). The format is cell-based, Xanthomonas campestris pv. campestris. Conditions: 0.1 mM supplement, 28 °C. The procedure:
The bacterium Xcc was grown in NYG medium at 28 °C and shaked at 200 rpm for 16–18 h. Once the cells had grown to a point where OD600 reached 1.0, they were harvested via centrifugation and washed twice with MMX medium. Following this, a volume of 0.1 ml of the cell suspension was added to 5 ml of fresh MMX medium. […] The culture was grown at 28 °C and the OD600 values were measured every 12 h. The experiments were repeated at least three times to ensure consistency.

The target in assay [5] is Xcc NAMPT H175F-I224F-V291F-I332F quadruple mutant (Xanthomonas campestris pv. campestris, UniProt A0A0H2X5R2, H175F/I224F/I332F/V291F). The format is biochemical. Conditions: for Km / kcat: 3.5 nM quadruple mutant. The procedure:
as §1, §2
The kinetic data was analyzed using Graphpad Prism 8. To determine the hill coefficients, substrate-velocity curves were analyzed by nonlinear regression with an allosteric sigmoidal model using the equation v = Vmax S^h/(Km^h + S^h). […]
mutant. c-d Michaelis–Menten plots for the tunnel-blocked quadruple mutant of Xcc […]
To determine the kinetic parameters of quadruple mutant, a concentration of 3.5 nM mutant was used. […]

The target of assay [6] is R373A+R180A mutant pair of Xcc NAMPT (Xanthomonas campestris pv. campestris, UniProt A0A0H2X5R2, R180A/R373A). The experiment in a line: NAMPT enzyme activity, fluorometric NMN assay (kinetic constants). The assay is classed as biochemical. The procedure: as §2
. Correspondingly, the additions of 20% acetophenone, 2 M KOH, and 100% formic acid were adjusted proportionally. The resulting final samples (120 μl) were transferred to 96-well plates, and the fluorescence values were measured following the same procedure as described earlier.
as §3
Fig. S9 Substrate-velocity curve for the R373A+R180A mutant pair of Xcc
of 0.3 nM mutant pair was used.
μM. The error bars depicted on the plot indicate the standard deviation of
measurements taken from three replicates.

Assay [7] addresses Xcc NAMPT with ATP pretreatment (Xanthomonas campestris pv. campestris, UniProt A0A0H2X5R2). The note with it: ITC after ATP treatment, sequential binding. The procedure: Proteins pretreated with ATP were prepared by incubating 1 μM protein and 1 mM ATP at 25 °C for 30 min. […] The ATP was subsequently removed by gel filtration using the Superdex 200 Increase 10/300 GL column. The final concentrations of proteins were measured by Nanodrop.
figure presented is a representative sample from three separate experiments. A
sequential binding sites model was used to fit the binding curves, yielding the
dissociation constant (Kd) and the stoichiometry (N) of the binding reaction.
(1 picture or pasted object on this page, not shown here)

Assay [8] deals with T1, Xcc NAMPT. The note with it: read-out: Kd2; ITC, 25 mM NAM into 30 μM NAMPT, sequential binding sites model, second site.
Assay [9] deals with T2, human NAMPT (Homo sapiens, UniProt P43490). Conditions: human NAMPT for NAM; cited from earlier work.
For assay [10], the target named is T2, human NAMPT. The experiment in a line: NAMPT enzyme activity, fluorometric NMN assay (kinetic constants). The note with it: 30 nM human NAMPT, PRPP 3 to 50 μM. The format is biochemical. The procedure: To determine the kinetic parameters of human NAMPT, a concentration of 30 nM His-tagged human NAMPT was used. […] The remaining conditions were kept the same as those employed in the Xcc NAMPT reaction system.
as §2, §3

Assay [11] concerns the target T2, human NAMPT. Conditions: NAMPT activators; cited from earlier work.
[12] abbreviates: substrate of Xcc NAMPT, 37 °C, Michaelis-Menten fit.
Setting [13] is: FK866 0.4 nM, E=0.4 nM, replicates.
Where [14] appears, read: 0.3 nM mutant pair, NAM 0.1 to 4 μM.

T2 sequence (P43490 whole entry): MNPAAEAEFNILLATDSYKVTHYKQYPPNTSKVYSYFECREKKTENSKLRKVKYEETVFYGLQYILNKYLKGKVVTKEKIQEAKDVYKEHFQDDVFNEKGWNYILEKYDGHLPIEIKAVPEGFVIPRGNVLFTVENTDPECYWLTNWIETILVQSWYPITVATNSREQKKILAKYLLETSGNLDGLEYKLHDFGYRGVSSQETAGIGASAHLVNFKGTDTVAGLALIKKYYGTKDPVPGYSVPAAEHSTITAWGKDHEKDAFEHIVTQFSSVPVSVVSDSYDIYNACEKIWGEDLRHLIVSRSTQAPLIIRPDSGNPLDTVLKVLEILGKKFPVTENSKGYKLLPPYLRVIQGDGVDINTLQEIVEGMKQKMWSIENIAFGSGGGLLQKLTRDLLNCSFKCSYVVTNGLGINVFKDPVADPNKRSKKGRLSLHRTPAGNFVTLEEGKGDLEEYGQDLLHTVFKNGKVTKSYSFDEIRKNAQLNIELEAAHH

On to `Nc1ncnc2c1ncn2[C@@H]1O[C@H](COP(=O)(O)OP(=O)(O)OP(=O)(O)O)[C@@H](O)[C@H]1O` [ATP], for which the Km at Xcc NAMPT [1] was found to be 560 ± 60 µM. Besides, the kcat at Xcc NAMPT [1] (setting [12]) stood at 4.40 ± 0.16 s⁻¹.
On to `O=C(/C=C/c1cccnc1)NCCCCC1CCN(C(=O)c2ccccc2)CC1` [FK866], for which the IC50 against Xcc NAMPT [2] came out at 0.00023 µM. For the same molecule, the Activity % was 99.2204% and 100.986% and 94.6063% and 98.6899% on Xcc NAMPT [2] (FK866 0.02 nM, E=0.4 nM, replicates); 101.785% and 102.935% and 85.505% and 97.238% on Xcc NAMPT [2] (FK866 0.04 nM, E=0.4 nM, replicates); 78.2474% and 70.3189% and 72.1819% and 76.3149% at Xcc NAMPT [2] (FK866 0.1 nM, E=0.4 nM, replicates); 62.8959% and 69.0568% and 55.7537% and 65.4354% at Xcc NAMPT [2] (FK866 0.2 nM, E=0.4 nM, replicates); 17.7119% and 13.8804% and 14.6162% on Xcc NAMPT [2] (setting [13]); 4.02% and 4.725% and 5.923% and 4.615% at Xcc NAMPT [2] (FK866 1 nM, E=0.4 nM, replicates). In addition, the Activity % at Xcc NAMPT [2] (FK866 2 nM, E=0.4 nM, replicates) is 1.856% and 4.769% and 2.139% and 3.338%. The molecule further came in with an activity at 0.0004 µM on Xcc NAMPT [2] (setting [13]) of 14.2%. On Xcc NAMPT [3], the Kd stood at 0.0822 µM.
As for `O=C(O)c1cccnc1` [NA, nicotinic acid], the “growth of ΔNamptΔNads in MMX with supplement” value (from here on “growth of ΔNamptΔNads in MMX”) in assay [4] is “did not grow”.
Take `NC(=O)c1ccc[n+]([C@@H]2O[C@H](COP(=O)([O-])OP(=O)(O)OC[C@H]3O[C@@H](n4cnc5c(N)ncnc54)[C@H](O)[C@@H]3O)[C@@H](O)[C@H]2O)c1` [NAD+, nicotinamide adenine dinucleotide]: the “growth of ΔNamptΔNads in MMX” value in assay [4] is reported as “able to grow”.
As for `NC(=O)c1cccnc1` [NAM, nicotinamide], the hill coefficient was ~ 1.98 at Xcc NAMPT [1] (NAM substrate-velocity curve, allosteric sigmoidal model) and 1.00 in assay [5] (NAM, quadruple mutant). Moreover, the Km in [5] is 7.33 ± 0.66 µM; in [6] (setting [14]) it was 0.08 ± 0.01 µM; at human NAMPT [9], 0.005 ± 0.002 µM. For the same molecule, the kcat in assay [5] worked out at 0.55 ± 0.02 s⁻¹; in assay [6] (setting [14]), 0.188 ± 0.005 s⁻¹. Also, the “hill coefficient (H)” value in assay [6] (mutant pair, NAM) is 1.64 ± 0.32 and 1.64. For the same molecule, the Kd in assay [7] (read-out: Kd (first binding site)) came out at 330 µM; in assay [7] (read-out: Kd (second binding site)) it was 2990 µM; at Xcc NAMPT [8], 21000 µM; at Xcc NAMPT [3], 1410 µM. Besides, the “growth of ΔNamptΔNads in MMX” value in [4] is listed as “did not grow”.
`NC(=O)c1ccc[n+]([C@@H]2O[C@H](CO)[C@@H](O)[C@H]2O)c1` [NmR, nicotinamide riboside]: in assay [4], the “growth of ΔNamptΔNads in MMX” value is “did not grow”.
In the case of `O=P(O)(O)OC[C@H]1O[C@H](OP(=O)(O)OP(=O)(O)O)[C@H](O)[C@@H]1O` [PRPP], the Km on Xcc NAMPT [1] (setting [12]) is 24.4 ± 6.26 µM; at human NAMPT [10] (2.5 mM ATP, 10 μM NAM) it was 5.41 ± 0.58 µM; in assay [5] (read-out: Km), 9.56 ± 1.14 µM. Also, the kcat at Xcc NAMPT [1] (setting [12]) amounted to 6.99 ± 0.56 s⁻¹; at human NAMPT [10], 0.045 ± 0.001 s⁻¹; in assay [5], 0.44 ± 0.01 s⁻¹. Also, in assay [5] (quadruple mutant vs wild-type), the “fold decrease in Km” value amounted to 2.55 fold. Further, the “fold decrease in catalytic efficiency” value in assay [5] (quadruple mutant vs wild-type) is given as “about 5.80 fold”. In addition, the “fold decrease in kcat” value in assay [5] (quadruple mutant vs wild-type) turned out to be 15.89 fold.
As for `O=C(NCc1ccncc1)Nc1ccc(S(=O)(=O)N2CC3CCC(C2)O3)cc1` [SBI-797812], the “effect on the enzymatic activity of human NAMPT” value at human NAMPT [11] was “almost double”.
